One series has as its system all microorganisms. Briefly: Preservative efficacy test (PET), overall compliance with European Pharmacopeia / USP criteria. Format: cell-based.
The nature of series [1]: MEDI0382 solubility studies (buffers, ionic strength, water, organic solvents, aqueous pH). Type of series: physicochemical. The method, then:
The aqueous pH solubility of MEDI0382 was also assessed.

Series [2] is described as follows: Visual inspection: gel formation, particles, shaking and freeze/thaw stress. Type of series: physicochemical. On the procedure:
Samples were stressed by temperature and freeze/thaw and analyzed for purity, aggregation, visual inspection, and for the presence of sub-visible particles.
In the freeze/thaw studies, the formulation was tested in the presence or absence of polysorbate 80 (0.3% v/v) with either 2 mg/ml or 5 mg/ml protein. Fresh solutions (glass vials, Type I, transparent) were frozen by three freeze/thaw cycles. After the thawing, samples were kept at 5 and 25° C. for up to 3 weeks and analysed by visual inspection. Samples without freezing were run in parallel as control. In a second study, the container closer compatibility was assessed by using Nalgene HDPE (more suitable for toxicological studies). In this case, only formulation at 5 mg/mL was analysed.
In these experiments, formulations with 0.03% polysorbate 80 were compared to formulations without polysorbate 80. The samples were incubated for 7 days at 50° C. […] All of the samples were then incubated for another 12 days.

How the values of series [3] were obtained: The solubility and pH stability of the GLP-1/glucagon agonist peptide MEDI0382 (FIG. 1) were studied. In particular, solubility was studied in different types of buffers, different buffer ionic strengths, pure water, and organic solvents. The aqueous pH solubility of MEDI0382 was also assessed. The chemical stability (as measured by reverse phase ultra performance liquid chromatography (RP-UPLC)) and secondary structure (as measured by Fourier transform infrared spectroscopy (FTIR) and UV circular dichoism spectroscopy (CD)) were also assessed at various pHs. Furthermore, the effect of pH on the kinetics of MEDI0382 aggregation were also assessed in a thioflavin T binding (ThT) assay. […]
The six selected formulations were used in a 1-month stability study at refrigerated (2-8° C.) and stressed conditions (37° C.). Samples were assessed at time zero, 2 weeks, and 4 weeks by RP-UPLC, DLS, Visual Inspection, Micro-Flow Imaging (MFI), Size Exclusion Chromatography-Multi-Angle Light Scattering (SEC-MALS). […]
(§1) The fiber formation was again evaluated using a ThT assay. […] Chemical degradation associated with these excipients was also monitored for one month for samples kept at 5° C. and 40° C. using an RP-UPLC assay. […] Particle formation associated with these excipients was also monitored by visual inspection after shaking stress (800 rpm for 4 hours). […]

Series [4] in a line: Secondary structure by FTIR and UV circular dichroism. Format: physicochemical. On the technique in general: Circular dichroism is the unequal absorption of left and right circularly polarised light.
A short description of series [5]: Container compatibility: syringe stability and adsorption to containers. Conditions: 50 mM Phosphate buffer, 1.85% (w/v) propylene glycol, pH 7.4. Type of series: physicochemical. On the procedure: The chemical stability of MEDI0382 was tested in 50 mM Phosphate buffer, 1.85% (w/v) of propylene glycol, pH 7.4.
This MEDI0382 formulation was stable in BD Plastipak syringes for at least 4 hours at room temperature.
However, an adsorption of the peptide to the containers at low levels of dosing (below 0.1 mg/ml) was identified. This MEDI0382 formulation was ruled out because the low doses of drug likely to be required to achieve a pharmacological (agonistic) effect could not feasibly be delivered in this way.

The nature of series [6]: Dynamic Light Scattering (DLS): particle size, Z-average, hydrodynamic diameter. Format: physicochemical. The following applies: 50 mM PB pH 7.5, 1.85% w/v PG, 0.03% v/v PS80; one month. The method, then:
The principles for formulation ranking used in Table 3 were the loss of peptide purity (main area peak/total peak area) at accelerated conditions (purity loss≤3% per 1 week at 40° C., low risk; purity loss>5% week at 40° C.=high risk) and physical stability at 40 or 5° C. (Z-average<10 nm=low risk, >10 nm=medium risk; >100 nm=high risk).
The six selected formulations were used in a 1-month stability study at refrigerated (2-8° C.) and stressed conditions (37° C.). Samples were assessed at time zero, 2 weeks, and 4 weeks by RP-UPLC, DLS, Visual Inspection, Micro-Flow Imaging (MFI), Size Exclusion Chromatography-Multi-Angle Light Scattering (SEC-MALS).
Purity (RP-UPLC), aggregation (DLS), peptide concentration (A280), High order structure (SEC-MALS)(multiangle (laser) light scattering), Sub-visible particles (MFI), Osmolarity, Conformational stability (Circular dichroism (CD) spectroscopy) and pH tests were conducted. The following temperatures were tested: 5° C., 15° C.; 25° C., 40° C. and −80° C. The following time points were tested: 0, 2 weeks, 1, 2, 3, 6, 9, 12, 24 and 36 months.
In another set of experiments, the impact of sorbitol (0-250 mM), propylene glycol (0-2%), and phenol (0-2%) in a pH range 7-8.2 on the physical stability of MEDI0382 was explored. Physical stability was monitored using DLS (DynaPro plate reader, Wyatt) and the ThT assay.

How the values of series [7] were obtained: The solubility and pH stability of the GLP-1/glucagon agonist peptide MEDI0382 (FIG. 1) were studied. In particular, solubility was studied in different types of buffers, different buffer ionic strengths, pure water, and organic solvents. The aqueous pH solubility of MEDI0382 was also assessed. The chemical stability (as measured by reverse phase ultra performance liquid chromatography (RP-UPLC)) and secondary structure (as measured by Fourier transform infrared spectroscopy (FTIR) and UV circular dichoism spectroscopy (CD)) were also assessed at various pHs. Furthermore, the effect of pH on the kinetics of MEDI0382 aggregation were also assessed in a thioflavin T binding (ThT) assay.
The effect of excipients on fiber formation was analyzed by evaluating whether or not amino acids and divalent ions could prevent fiber formation at pH 7.5. […] The fiber formation was evaluated using a Thioflavin T binding assay (ThT) assay.
as §1
This is another data set of the same source.

Another series concerns Staphylococcus aureus. Briefly: Preservative efficacy test (PET; Ph. Eur. / USP), S. aureus. The following applies: 5.5 mg/mL MEDI0382 multi-dose formulation.

Bounds are passed on as bounds.

Description for Staphylococcus aureus: (§2) In preservative efficacy assays, a short study was performed whereby two microorganisms were used to assess the microbial efficacy of the prepared formulations (Staphylococcus aureus and E. coli). Samples were tested at t=0 (bulk) and t=1 month after storage at 25° C.
Preservative efficacy testing (PET) was also performed on 2 and 5 mg/ml MEDI0382 formulations containing 20 mM sodium phosphate buffer, 220 mM sorbitol, and m-Cresol (at the concentrations indicated in Table 35) at pH.
A total of 20 bulk formulations were prepared and tested in accordance with the European Pharmacopeia Edition 10.0 Section 5.1.3 and the United States Pharmacopeia 42 <51>.
Description for all microorganisms: as §2
A multivariate robustness study was carried out to investigate the impact of m-cresol content, sodium phosphate concentration, and m-cresol content on the preservative efficacy of the 5 mg/mL multi-dose formulation. […] A total of 20 bulk formulations were prepared and tested in accordance with the European Pharmacopeia Edition 10.0 Section 5.1.3 and the United States Pharmacopeia 42 <51>.

Consider `Cc1cccc(O)c1` [Hedinger m-Cresol, m-Cresol], for which, in the series on all microorganisms (highest concentrations tested, S. aureus and E. coli), the “European criteria passed (PET)” value was “passed the more stringent European (“A”) criteria”.

As usually defined, the solubility is the concentration that dissolves in the medium under given conditions. `CCCCCCCCCCCCCCCC(=O)N[C@@H](CCC(=O)NCCCC[C@H](NC(=O)[C@H](CC(=O)O)NC(=O)[C@H](CO)NC(=O)[C@@H](NC(=O)[C@H](Cc1ccccc1)NC(=O)[C@@H](NC(=O)CNC(=O)[C@H](CCC(N)=O)NC(=O)[C@H](CO)NC(=O)[C@@H](N)Cc1c[nH]cn1)[C@@H](C)O)[C@@H](C)O)C(=O)N[C@@H](CO)C(=O)N[C@@H](CCC(=O)O)C(=O)N[C@@H](Cc1ccc(O)cc1)C(=O)N[C@@H](CC(C)C)C(=O)N[C@@H](CC(=O)O)C(=O)N[C@@H](CO)C(=O)N[C@@H](CCC(=O)O)C(=O)N[C@@H](CCCNC(=N)N)C(=O)N[C@@H](C)C(=O)N[C@@H](CCCNC(=N)N)C(=O)N[C@@H](CC(=O)O)C(=O)N[C@@H](Cc1ccccc1)C(=O)N[C@H](C(=O)N[C@@H](C)C(=O)N[C@@H](Cc1c[nH]c2ccccc12)C(=O)N[C@@H](CC(C)C)C(=O)N[C@@H](CCC(=O)O)C(=O)N[C@@H](C)C(=O)NCC(=O)NCC(=O)O)C(C)C)C(=O)O` [MEDI0382]: the Organic solvent solubility entry in series [1] is “Low”. Besides, the Physical state result in series [1] is on record as “Amorphous powder, hygroscopic, sensitive”. Besides, the Preferable buffers solubility result in series [1] is “Sodium phosphate and TRIS”. Moreover, in series [1] (buffers of different ionic strengths, read-out: Ranges of ionic strength solubility), the solubility is no less than 25 mM. Moreover, the “Aqueous solution pH solubility” value in series [1] (pH 1 to 3 and 6 to 13) was “increases at pH 1 to 3 and 6 to 13”; in [1] (pH 4.1 to 4.5) it was “Insoluble at pH 4.1 to 4.5, solubility”. The gel formation result in [2] (0.03% polysorbate 80, pH 6.9, 7 days at 50° C.) is listed as “turned into a solid gel”; in [2] (0.03% polysorbate 80, pH 8.3, 7 days at 50° C.) it was “did not”; in series [2] (without polysorbate 80, pH 6.9, another 12 days) it was “turned into a soft gel”. In addition, the visual inspection result in [2] (50 mM PB pH 7.5, 1.85% w/v PG, 0.03% v/v PS80, 2-month storage) was “gel-like-appearance”. Moreover, the “pH at which both physical and chemical stability are improved” value in series [3] was no less than 8. Also, the “pH impact on secondary structure” value in series [4] is reported as “increases α-helix in alkaline conditions (7 to 8)”. In addition, the “concentration at which adsorption of the peptide to the containers was identified” value in [5] is listed as “below 0.1 mg/ml”. Besides, the “time stable in BD Plastipak syringes” value in [5] (room temperature) was “at least 4 hours”. Further, the “Z-average values (DLS)” value in [6] is “increased sharply over the month at all temperatures, except at −80 °C”. Also, in series [7], the “optimal pH for physical stability” value was greater than 7.8. In [7] (pH 8), the “pH impact on aggregation kinetics: lag time” value is “kinetics (higher lag time at pH 8 (93 hours),”.

Regarding `Cc1cccc(O)c1` [meta-cresol], in the series on all microorganisms, the “minimum meta-cresol needed to achieve Ph. Eur. Criteria A” value is on record as ≥ 0.34 % (w/v) and the “minimum meta-cresol needed to consistently achieve Ph. Eur. Criteria B” value was ≥ 0.27 % (w/v). Moreover, in the series on all microorganisms (5.5 mg/mL MEDI0382 multi-dose formulation), the “m-cresol concentration at which USP and EP criteria A are consistently met for all microorganisms except Staphylococcus aureus (EP criteria B met)” value is reported as ≥ 0.24 % (w/v). For the same molecule, the “m-cresol concentration required for a log reduction consistently greater than 3 at 24 hours” value with Staphylococcus aureus was ≥ 0.28 % (w/v).

With `Oc1ccccc1` [phenol], the “phenol concentration needed to achieve the less stringent European (“B”) criteria” value in the series with all microorganisms (with 1 mg/mL MEDI0382) was “at least 0.44 % w/v”; with all microorganisms (with 2 mg/mL MEDI0382), “at least 0.54 % w/v”.

The values are drawn from US20230159606A1, “PHARMACEUTICAL COMPOSITIONS FOR GLUCAGON AND GLP-1 CO-AGONIST PEPTIDES” (MEDIMMUNE LIMITED, priority 2019, published 2023).
